How the values were obtained:
IgG3 = experiment: Serum IgG3 in anti-IgD stimulated mice (two site sandwich ELISA, Assay D); format: in vivo, mouse (Balb/c female)
IgE = experiment: Serum IgE response induced by FF1-4D5 + H∂A1 anti-IgD antibodies (ELISA, Assay A / Assay F); format: in vivo, mouse (Balb/c female); conditions: for Mean IgE ± SD: 2 μg IP 4x daily days 3 and 4
Procedure, shortened: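 Transient IgE response induced in female Balb/c mice (10–20 weeks) by a day-0 i.v. or s.c. injection of 100 μg each of anti-IgD FF1-4D5 and H.δA1. Serum IgE measured by sandwich ELISA (B1E3 capture, biotinylated R1E4 detection, avidin-biotin-HRP/ABTS), quantified against an IgE standard curve corrected for serum dilution.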

For CCCCC(C)(O)C/C=C/[C@H]1[C@H](O)CC(=O)[C@@H]1C/C=C\CCCC(=O)OC (mixture of isomers) [(±) methyl 11α,16-dihydroxy-16-methyl-9-oxoprosta-5Z,13E-dien-1-oate], the “IgG3 ± SD” value (IgG3; 2 μg IP days 3 and 4, day 7 (control 227)) was 370 ± 229 µg/mL, the “IgG3 ± SD” value (IgG3; 2 μg IP days 3 and 4, day 8 (control 519)) was 882 ± 310 µg/mL and the “IgG3 ± SD” value (IgG3; 2 μg IP days 3 and 4, day 9 (control 510)) was 741 ± 475 µg/mL. For the same compound, the “IgG3 ± SD” value (IgG3; 2 μg IP days 3 and 4, day 11 (control 465)) was 687 ± 152 µg/mL, the “IgG3 ± SD” value (IgG3; 2 μg IP days 3 and 4, day -1 baseline before treatment) was 70 ± 10 µg/mL and the “IgG3 ± SD” value (IgG3; 5 μg IP days 3 and 4, day 7) was 464 ± 161 µg/mL. The “IgG3 ± SD” value (IgG3; 5 μg IP days 3 and 4, day 8) was 640 ± 46 µg/mL, the “IgG3 ± SD” value (IgG3; 5 μg IP days 3 and 4, day 9) was 649 ± 232 µg/mL and the “IgG3 ± SD” value (IgG3; 5 μg IP days 3 and 4, day 11) was 559 ± 162 µg/mL. For the same compound, the “IgG3 ± SD” value (IgG3; 5 μg IP days 3 and 4, day -1 baseline before treatment) was 109 ± 44 µg/mL, the “IgG3 ± SD” value (IgG3; 10 μg IP days 3 and 4, day 7) was 494 ± 267 µg/mL and the “IgG3 ± SD” value (IgG3; 10 μg IP days 3 and 4, day 8) was 789 ± 264 µg/mL. For the same compound, the “IgG3 ± SD” value (IgG3; 10 μg IP days 3 and 4, day 9) was 760 ± 340 µg/mL, the “IgG3 ± SD” value (IgG3; 10 μg IP days 3 and 4, day 11) was 802 ± 216 µg/mL and the “IgG3 ± SD” value (IgG3; 10 μg IP days 3 and 4, day -1 baseline before treatment) was 68 ± 2 µg/mL. The “IgG3 ± SD” value (IgG3; 20 μg IP days 3 and 4, day 7) was 446 ± 266 µg/mL, the “IgG3 ± SD” value (IgG3; 20 μg IP days 3 and 4, day 8) was 1075 ± 453 µg/mL and the “IgG3 ± SD” value (IgG3; 20 μg IP days 3 and 4, day 9) was 1636 ± 275 µg/mL. For the same compound, the “IgG3 ± SD” value (IgG3; 20 μg IP days 3 and 4, day 11) was 1288 ± 156 µg/mL, the “IgG3 ± SD” value (IgG3; 20 μg IP days 3 and 4, day -1 baseline before treatment) was 77 ± 10 µg/mL and the “IgG3 ± SD” value (IgG3; 40 μg IP days 3 and 4, day 7) was 236 ± 84 µg/mL. For the same compound, the “IgG3 ± SD” value (IgG3; 40 μg IP days 3 and 4, day 8) was 639 ± 104 µg/mL, the “IgG3 ± SD” value (IgG3; 40 μg IP days 3 and 4, day 9) was 1048 ± 167 µg/mL and the “IgG3 ± SD” value (IgG3; 40 μg IP days 3 and 4, day 11) was 1044 ± 115 µg/mL. For the same compound, the “IgG3 ± SD” value (IgG3; 40 μg IP days 3 and 4, day -1 baseline before treatment) was 68 ± 6.5 µg/mL, the “Serum IgE ± SD” value (IgE; 0.5 μg IP 4x daily days 3 and 4, day 7) was 7813 ± 588 ng/mL and the “Serum IgE ± SD” value (IgE; 0.5 μg IP 4x daily days 3 and 4, day 8) was 5699 ± 322 ng/mL. For the same compound, the “Serum IgE ± SD” value (IgE; 0.5 μg IP 4x daily days 3 and 4, day 9) was 6097 ± 249 ng/mL, the “Serum IgE ± SD” value (IgE; 0.5 μg IP 4x daily days 3 and 4, day 11) was 2049 ± 1201 ng/mL and the “Serum IgE ± SD” value (IgE; 0.5 μg IP 4x daily days 3 and 4, day -1 baseline before treatment) was 839 ± 44 ng/mL. The “Serum IgE ± SD” value (IgE; 1.0 μg IP 3x daily days 3 and 4, day 7 (control 8850)) was 4974 ± 1232 ng/mL, the “Serum IgE ± SD” value (IgE; 1.0 μg IP 3x daily days 3 and 4, day 8 (control 7557)) was 4595 ± 663 ng/mL and the “Serum IgE ± SD” value (IgE; 1.0 μg IP 3x daily days 3 and 4, day 9 (control 6458)) was 4602 ± 771 ng/mL. The “Serum IgE ± SD” value (IgE; 1.0 μg IP 3x daily days 3 and 4, day 11 (control 1466)) was 1326 ± 241 ng/mL, the “Serum IgE ± SD” value (IgE; 1.0 μg IP 3x daily days 3 and 4, day -1 baseline before treatment) was 808 ± 17 ng/mL and the “Serum IgE ± SD” value (IgE; 1.0 μg IP 4x daily days 3 and 4, day 7) was 5549 ± 1044 ng/mL. The “Serum IgE ± SD” value (IgE; 1.0 μg IP 4x daily days 3 and 4, day 8) was 3051 ± 475 ng/mL, the “Serum IgE ± SD” value (IgE; 1.0 μg IP 4x daily days 3 and 4, day 9) was 4383 ± 832 ng/mL and the “Serum IgE ± SD” value (IgE; 1.0 μg IP 4x daily days 3 and 4, day 11) was 1506 ± 794 ng/mL. For the same compound, the “Serum IgE ± SD” value (IgE; 1.0 μg IP 4x daily days 3 and 4, day -1 baseline before treatment) was 1197 ± 272 ng/mL, the “Serum IgE ± SD” value (IgE; 2.0 μg IP 3x daily days 3 and 4, day 7) was 5598 ± 1875 ng/mL and the “Serum IgE ± SD” value (IgE; 2.0 μg IP 3x daily days 3 and 4, day 8) was 3057 ± 331 ng/mL. For the same compound, the “Serum IgE ± SD” value (IgE; 2.0 μg IP 3x daily days 3 and 4, day 9) was 3644 ± 1179 ng/mL, the “Serum IgE ± SD” value (IgE; 2.0 μg IP 3x daily days 3 and 4, day 11) was 1279 ± 377 ng/mL and the “Serum IgE ± SD” value (IgE; 2.0 μg IP 3x daily days 3 and 4, day -1 baseline before treatment) was 800 ± 10 ng/mL. The “Serum IgE ± SD” value (IgE; 2.0 μg IP 4x daily days 3 and 4, day 7) was 5483 ± 717 ng/mL, the “Serum IgE ± SD” value (IgE; 2.0 μg IP 4x daily days 3 and 4, day 8) was 3236 ± 599 ng/mL and the “Mean IgE ± SD” value (IgE; day 8 (controls 14083-15890)) was 5401 ± 883 ng/mL. The “Serum IgE ± SD” value (IgE; 2.0 μg IP 4x daily days 3 and 4, day 9) was 3987 ± 401 ng/mL, the “Serum IgE ± SD” value (IgE; 2.0 μg IP 4x daily days 3 and 4, day 11) was 1925 ± 410 ng/mL and the “Mean IgE ± SD” value (IgE; day -1 baseline before treatment) was 1294 ± 232 ng/mL. The “Serum IgE ± SD” value (IgE; 2.0 μg IP 4x daily days 3 and 4, day -1 baseline before treatment) was 1019 ± 206 ng/mL, the “reduction in IgE production” value (IgE; 2 μg IP, day 8) was “about 62%” and the “IgE inhibition regardless of day of administration” value (IgE; 5 μg IP) was “regardless on what day the prostaglandin was administered IgE production (synthesis) was inhibited”. The “duration of IgE suppression” value (IgE; 5 μg IP) was “IgE production was still suppressed even after 11 days”.
